The text below walks through data of patent publication US20230190774A1, “METHOD OF USING SUBSTRATES OF AKR1Bl/AKR1B10 AS ANTI-CANCER DRUGS” (Beijing Normal University Hong Kong Baptist University …, priority 2015, published 2023).

“Also recorded” adds a separate entry of the source. Where two headings read alike, the source gives them in different places.

The target of data set [1] is T1, AKR1B1 (Homo sapiens, UniProt P15121). The experiment in a line: Enzyme activity assay (NADPH oxidation), purified AKR1B1. The data set is classed as biochemical. To be noted: 20 mM substrate, pH 6.2, 30° C. As for the experimental part: (§1) Assay of AKR1B1 and AKR1B10 enzymes activities were conducted in 1 ml of the reaction mixture containing 135 mM sodium phosphate buffer (pH 6.2 for AKR1B1 or pH 7.0 for AKR1B10), 0.2 mM NADPH, 0.3 M ammonium sulfate, 2 µg purified protein and 20 mM of their substrate as indicated. The reaction mix was incubated at 30° C. for 30 minutes (min). Protein-free blank controls were included. The decrease of NADPH was monitored by spectrophotometer at 340 nm. Enzyme activity was calculated as the amount of NADPH oxidized/min/mg of protein (Shen Y et al., Chem Biol Interact. 2011, 191(1-3): 192-198).

Data set [2] concerns the target T2, AKR1B10 (Homo sapiens, UniProt O60218). To be noted: ND = no detectable activity or less than 32 nmol/min/mg; cited from earlier work.
In the next data set the test system is HepG2 tumor xenograft. The note with it: 500 mg/kg, tail vein, daily for 21 days. On the procedure: Six-week-old male BALB/C nude mice were purchased from the Laboratory Animal Unit of the University of Hong Kong. Mice were allowed to acclimate to laboratory conditions for 1 week before cancer cells injection. […] Treatment was initiated when the tumor grew to about 200±100 mm3. […] Mice were randomized and allocated to different groups. They received daily tail vein injection for 3 weeks of one of the following: glyceraldehyde (500 mg/kg body weight); diacetyl (80 mg/kg body weight); or normal saline. Mice were weighted and the sizes of the tumors were measured with calipers every 3 days. Tumor volumes were calculated with the formula: length×width2/2. Animals were humanely killed at the end of the experiment and their tumors were weighed.

Data set [3] concerns the target T1, AKR1B1. To be noted: ND = no detectable activity or less than 32 nmol/min/mg; cited from earlier work.
The test system of data set [4] is SKOV3 cells. The data set is described as follows: Cytotoxicity assay (cell survival rate, MTT). The data set is classed as cell-based. The note with it: for Protection against 2DG toxicity by AKR1Bs inhibitor (survival rate): inhibitor 24 h, then 2DG (20 mM) for additional 48 h. On the procedure:
(§2) HepG2 cells, SKOV3 cells, HCT116 cells and CaCo2 cells were cultured in DMEM medium, SW480 cells in 1640 medium, and HT29 cells in McCoy’s 5A medium. All cell culture media were supplemented with 10% FBS, 1% PSN, and cells were cultured in a humidified incubator containing 5% CO2 at 37° C. In cytotoxicity assays, cells were seeded at 1 × 10^5 cells/well in 96 well plates with full medium. In GSH assay and Western blot analysis, cells were seeded at 3× 10^6 cells/well in 6 well plates.
(§3) The AKR1Bs substrates’ cytotoxicity was assessed by cell survival rate using MTT assay. After the cells were treated with the substrates for the length of time indicated, MTT was added to a final concentration of 0.5 mg/ml in each well of a 96-well plate, and the plates were incubated at 37° C. for 4 hour. Then DMSO was added to dissolve the formazan product, the amount of which is proportional to the number of live cells. The absorbance of dissolved dye was measured at 540 nm using an automatic microplate reader.

For data set [5], the system named is HepG2 cells. The data set is described as follows: Cytotoxicity assay (cell survival rate, MTT). To be noted: for Protection against 2DG toxicity by AKR1Bs inhibitor (survival rate): inhibitor 24 h, then 2DG (20 mM) for additional 48 h. The format is cell-based. On the procedure: as §2, §3
The subject of data set [6] is HCT116 cells. The experiment in a line: Cytotoxicity assay (cell survival rate, MTT). The format is cell-based. To be noted: for Protection against 2DG toxicity by AKR1Bs inhibitor (survival rate): inhibitor 24 h, then 2DG (20 mM) for additional 48 h. As for the experimental part: as §2, §3
The test system of data set [7] is CaCo2 cells. The data set is described as follows: Cytotoxicity assay (cell survival rate, MTT). The format is cell-based. To be noted: for Protection against 2DG toxicity by AKR1Bs inhibitor (survival rate): inhibitor 24 h, then 2DG (20 mM) for additional 48 h. As for the experimental part: as §2, §3
A further data set deals with SW480 cells. The experiment in a line: Cytotoxicity assay (cell survival rate, MTT). The format is cell-based. To be noted: substrate alone, 2DG for 72 hours. As for the experimental part:
as §3, with “HepG2 cells, SKOV3 cells, HCT116 cells and CaCo2 cells were cultured in DMEM medium, SW480 cells in 1640 medium, and HT29 cells in McCoy’s 5A medium. […] In cytotoxicity assays, cells were seeded at 1 × 10^5 cells/well in 96 well plates with full medium. In GSH assay and Western blot analysis, cells were seeded at 3× 10^6 cells/well in 6 well plates. The AKR1Bs” for “The AKR1Bs”

The next data set deals with HT29 cells. The data set is described as follows: Cytotoxicity assay (cell survival rate, MTT). The data set is classed as cell-based. To be noted: substrate alone, 2DG for 72 hours. On the procedure: as §3, with “HepG2 cells, SKOV3 cells, HCT116 cells and CaCo2 cells were cultured in DMEM medium, SW480 cells in 1640 medium, and HT29 cells in McCoy’s 5A medium. […] In cytotoxicity assays, cells were seeded at 1 × 10^5 cells/well in 96 well plates with full medium. In GSH assay and Western blot analysis, cells were seeded at 3× 10^6 cells/well in 6 well plates. The AKR1Bs” for “The AKR1Bs”

In data set [8] the target is T2, AKR1B10. The data set is described as follows: Enzyme activity assay (NADPH oxidation), purified AKR1B10. The data set is classed as biochemical. The note with it: 20 mM substrate, pH 7.0, 30° C. As for the experimental part: as §1
The conditions of data set [9]: for Death Rate: both, ICR, 14 days. As for the experimental part:
ICR mice (18-22 g) were acquired from the Laboratory Animal Services Centre, The Chinese University of Hong Kong. These animals were housed in an animal room with 12 h of day and dark cycles, and the temperature maintained at around 25° C. There were 4 male and 4 female in each treatment and control group. They were treated with either diacetyl or glyceraldehyde. Diacetyl and glyceraldehyde were dissolved with saline and administered to the mice by intravenous injection with the amount indicated. […] Mortality was recorded daily for the calculation of […] (LD50). All surviving animals were euthanized with diethyl-ether at the end of the experiment.

The test system of another data set is glycolysis. The note with it: background statement; cited from earlier work.
In data set [10] the test system is HCT116 cells. The experiment in a line: GSH assay of cell lysates. The format is cell-based. The note with it: inhibitor (40 µM) 24 h, then 2DG (20 mM) 48 h. As for the experimental part:
as §2
(§4) The cells were washed in cold PBS and then scraped into 300 µL of PBS. The cells were disrupted by ultrasonicator on ice followed by centrifuged at 3500 rpm at 4° C. The supernatant was transferred to a fresh tube and used for GSH assay using GSH assay kit. The concentrations of GSH in cell lysates were determined using the standard GSH calibration curve. The GSH detection for each sample was performed at least three times.

Data set [11] deals with CaCo2 cells. The experiment in a line: GSH assay of cell lysates. The data set is classed as cell-based. The note with it: inhibitor (40 µM) 24 h, then 2DG (20 mM) 48 h. On the procedure:
as §2, §4

The test system of data set [12] is SKOV3 cells. The experiment in a line: GSH assay of cell lysates. The data set is classed as cell-based. To be noted: inhibitor (40 µM) 24 h, then 2DG (20 mM) 48 h. On the procedure:
as §2, §4

Data set [13] deals with HepG2 cells. The experiment in a line: GSH assay of cell lysates. The data set is classed as cell-based. The note with it: inhibitor (40 µM) 24 h, then 2DG (20 mM) 48 h. On the procedure: as §2, §4
[14] abbreviates: substrate alone, 2DG for 72 hours.

T2 sequence (O60218 whole entry): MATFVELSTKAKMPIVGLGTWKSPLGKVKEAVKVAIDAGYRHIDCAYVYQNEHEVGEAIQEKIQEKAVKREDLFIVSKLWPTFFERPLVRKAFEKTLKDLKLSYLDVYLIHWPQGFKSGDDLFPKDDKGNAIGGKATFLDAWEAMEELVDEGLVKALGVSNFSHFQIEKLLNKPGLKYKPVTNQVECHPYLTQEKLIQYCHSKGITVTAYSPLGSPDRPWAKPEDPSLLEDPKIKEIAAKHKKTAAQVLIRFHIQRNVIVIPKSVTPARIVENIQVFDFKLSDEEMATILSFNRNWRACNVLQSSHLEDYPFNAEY

In the case of `O=CC(O)CO` (racemic) [Glyceraldehyde, glyceraldehyde], the figures for the “Efficiency as substrate of AKR1B1 (rate of NADPH depletion)” value at AKR1B1 [1] and at AKR1B1 [1] (listed as glyceraldehyde) were “excellent substrate” and “best substrate”, respectively. The “AKR1B10 activity, amount of NADPH (nmol) oxidized per min per mg of protein” value at AKR1B10 [2] was 1853 nmol/min/mg. For the same compound, in the data set with HepG2 tumor xenograft, the Tumor volume result is “significantly reduced”. In addition, in the data set with HepG2 tumor xenograft, the Tumor weight entry was “significantly reduced”. Besides, the “AKR1B1 activity, amount of NADPH (nmol) oxidized per min per mg of protein” value at AKR1B1 [3] is on record as 1681 nmol/min/mg. Further, the “Cytotoxicity of AKR1Bs substrate (cell survival rate)” value with SKOV3 cells [4] (setting [14]) was “dose-dependently and preferentially kill; also recorded: dose dependently and preferentially kill; also recorded: most efficient”; with HepG2 cells [5] (setting [14]) it was “dose-dependently and preferentially kill; also recorded: dose dependently and preferentially kill; also recorded: most efficient”; in the data set on HCT116 cells [6] (setting [14]) it was “dose dependently and preferentially kill”; in the data set with CaCo2 cells [7] (setting [14]), “dose dependently and preferentially kill”; in the data set on SW480 cells, “more resistant”; in the data set on HT29 cells, “more resistant”. In addition, the “Efficiency as substrate of AKR1B10 (rate of NADPH depletion)” value at AKR1B10 [8] is on record as “excellent substrate”. Besides, the LD50 entry in data set [9] (ICR mice, intravenous injection daily for 14 days) is recorded as “greater than 2000 mg/kg BW”; in [9] (mouse, in vivo, iv), >2000 mg/kg BW. In addition, the “Death Rate” value is on record as 0% in data set [9] (mouse, in vivo, iv, 1000 mg/kg) and 0% in data set [9] (mouse, in vivo, iv, 2000 mg/kg).
For `O=C[C@H](F)[C@@H](O)[C@H](O)[C@H](O)CO` [2FDG, 2-fluorodeoxy-D-glucose], the “Potency as glycolysis inhibitor relative to 2DG” value in the data set with glycolysis is “more potent glycolysis inhibitor than 2DG”.
For `NC(=O)[C@@H]1C[C@]2(NC(=O)NC2=O)c2cc(F)ccc2O1` [Fidarestat], the “Restoration of GSH level in 2DG treated cells by AKR1Bs inhibitor” value in the data set with HCT116 cells [10] and in the data set with CaCo2 cells [11] was “able to increase” throughout. Besides, the “Protection against 2DG toxicity by AKR1Bs inhibitor (survival rate)” value is recorded as “less effective in protecting” with SKOV3 cells [4], “less effective in protecting” in the data set on HepG2 cells [5], “protected” with HCT116 cells [6] and “protected” in the data set with CaCo2 cells [7].
On to `COc1ccc2c(C(=S)N(C)CC(=O)O)cccc2c1C(F)(F)F` [Tolrestat], for which the “Restoration of GSH level in 2DG treated cells by AKR1Bs inhibitor” value in the data set with SKOV3 cells [12], in the data set on HepG2 cells [13], in the data set on HCT116 cells [10] and in the data set on CaCo2 cells [11] was “significantly restored” in each case. Further, the “Protection against 2DG toxicity by AKR1Bs inhibitor (survival rate)” value with SKOV3 cells [4], with HepG2 cells [5], in the data set with HCT116 cells [6] and in the data set on CaCo2 cells [7] was “dose-dependently protected” each time.
